14 compounds from patent US11332485B2, “Penicillin-binding protein inhibitors” (priority 2017, dated 2022) can be followed below.

For test [1], the target named is T1, PBP3 from Escherichia coli (Escherichia coli, UniProt P0AD68).
T1 construct: made in house
The test is described as follows: Fluorescence polarization competition binding assay with Bocillin-FL. The text has this: To determine the ability of boronic acid-based test PBP inhibitors to bind Penicillin Binding Proteins (PBPs), Bocillin-FL (fluorescently-labeled penicillin V; ThermoFisher Scientific) was used in a fluorescence polarization (FP) competition binding assay to assess boronic acid PBP inhibitor binding to PBP3 from Escherichia coli. PBP3 from Escherichia coli was cloned and purified as described previously (King, D. T, et al., ACS Infectious Diseases 2015, 1, 175-184). To establish assay conditions for competition binding, an enzyme titration/saturation binding experiment was performed. Bocillin-FL was prepared at […] in a buffer comprised of 50 mM Hepes (pH 8.0), 300 mM NaCl and 5% (v/v) glycerol. Saturation binding was performed by mixing […] of PBP3 ranging in concentrations from […] with 40 μl of the 0.2 μM Bocillin-FL solution, in individual wells of a black 384-well microplate. FP was measured immediately upon addition of PBP3 (Ex, Em), using a Cytation3 (BioTek) microplate reader and measured continuously for 60 minutes. […] The competition binding assay was validated using the beta-lactam ampicillin, with Bocillin-FL at a final concentration of 0.1 μM, PBP3 at a final concentration of 1.5 μM and concentrations of ampicillin from 0-1000 μM. PBP3 was incubated with ampicillin at different concentrations in a black 384-well microplate (Corning) for 30 minutes, then Bocillin-FL added and the FP immediately measured for 60 minutes. […] Binding assays for boronic acid PBP inhibitors were performed in an identical fashion. Representative results are shown in Table 3, where A represents a potency of >500 μM, B represents a potency between 30 μM and 500 μM inclusive, and C represents a potency of <30 μM. NT=Not Tested.

The test system of test [2] is E. coli DH5α/pLBII-CTX-M15. The test is described as follows: Broth microdilution MIC assay, engineered strain producing CTX-M15. Type of test: cell-based, Escherichia coli. As to conditions: Escherichia coli, read-out: E. coli DH5α/pLBII-CTX-M15 Microbiological Activity (MIC). The essentials:
(§1)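 CLSI broth microdilution in cation-supplemented Mueller-Hinton broth, 2-fold compound dilutions, 5×10^5 CFU/mL inoculum, 16-20 h at 37° C, MIC read visually as lowest concentration without growth. E. coli DH5α carries CTX-M15 on pLBII under Lac promoter, or empty pLBII as control.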
For orientation: In broth dilution the organism is exposed to a series of concentrations in liquid medium.

The subject of a further test is S. aureus ATCC 29213. The test is described as follows: Broth microdilution MIC assay. Type of test: cell-based. Conditions: Staphylococcus aureus, ATCC29213; broth microdilution, 16-20 hours at 37° C.; read-out: S. aureus 29213 MIC. The essentials: (§2)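 Following CLSI procedures, compounds were serially diluted 2-fold and challenged with bacteria at 5×10^5 CFU/mL in Mueller-Hinton broth supplemented with divalent cations. After 16-20 hours at 37° C, the lowest concentration without visible growth was recorded as the MIC.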

Test [3] relates to hyper-permeable E. coli 901C. The test is described as follows: Broth microdilution MIC assay. The format is cell-based. As to conditions: Escherichia coli, read-out: E. coli 901C MIC. In outline: as §2
The test system of a further test is E. coli DH5α/pLBII. The test is described as follows: Broth microdilution MIC assay, empty vector control strain. The format is cell-based. As to conditions: Escherichia coli, read-out: E. coli DH5α/pLBII Microbiological Activity (MIC). In outline:
as §1

Molecules are shown by their SMILES.

T1 sequence (P0AD68 1-577): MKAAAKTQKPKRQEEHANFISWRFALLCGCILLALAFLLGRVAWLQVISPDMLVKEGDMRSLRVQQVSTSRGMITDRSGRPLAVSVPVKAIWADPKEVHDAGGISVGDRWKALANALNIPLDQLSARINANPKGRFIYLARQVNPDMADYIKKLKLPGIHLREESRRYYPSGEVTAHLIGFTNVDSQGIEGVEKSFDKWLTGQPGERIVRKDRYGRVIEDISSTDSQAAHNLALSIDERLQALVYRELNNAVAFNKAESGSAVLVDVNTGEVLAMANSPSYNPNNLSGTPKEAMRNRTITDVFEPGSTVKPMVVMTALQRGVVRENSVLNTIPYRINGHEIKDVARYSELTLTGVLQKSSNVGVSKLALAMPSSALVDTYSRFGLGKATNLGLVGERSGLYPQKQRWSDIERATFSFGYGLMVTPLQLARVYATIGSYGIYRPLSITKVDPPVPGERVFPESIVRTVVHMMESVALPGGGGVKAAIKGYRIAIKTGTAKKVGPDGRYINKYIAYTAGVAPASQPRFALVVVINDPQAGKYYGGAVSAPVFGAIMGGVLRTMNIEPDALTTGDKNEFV

For the compound `CCN1CCN(C(=O)N[C@@H](CO)C(=O)N[C@H]2Cc3cccc(C(=O)O)c3OB2O)C(=O)C1=O` [Example 32, (R)-3-((S)-2-(4-Ethyl-2,3-dioxopiperazine-1-carboxamido)-3-hydroxy-propanamido)-2-hydroxy-3,4-dihydro-2H-benzo[e][1,2]oxaborinine-8-carboxylic acid], the EC50 in test [1] is greater than 500 µM. For the same compound, the MIC in test [2] is greater than 512 µg/mL; with S. aureus ATCC 29213, greater than 128 µg/mL; in test [3], greater than 128 µg/mL; with E. coli DH5α/pLBII, greater than 512 µg/mL.

In test [1], `CCN1CCN(C(=O)N[C@@H](C(=O)N[C@H]2Cc3cccc(C(=O)O)c3OB2O)c2ccccc2)C(=O)C1=O` [Example 11, (R)-3-((R)-2-(4-ethyl-2,3-dioxopiperazine-1-carboxamido)-2-phenylacetamido)-2-hydroxy-3,4-dihydro-2H-benzo[e][1,2]oxaborinine-8-carboxylic acid] had an EC50 of less than 30 µM. Moreover, the MIC in test [2] was 32 to 64 µg/mL; in the test on S. aureus ATCC 29213, 64 to 128 µg/mL; in test [3], less than 64 µg/mL; in the test with E. coli DH5α/pLBII, 32 to 64 µg/mL.

In test [1], `Nc1nc(C(NC(=O)N2CCN(CCO)C(=O)C2=O)C(=O)N[C@H]2Cc3cccc(C(=O)O)c3OB2O)cs1` (stereo partly drawn) [Example 60, (3R)-3-(2-(2-aminothiazol-4-yl)-2-(4-(2-hydroxyethyl)-2,3-dioxopiperazine-1-carboxamido)acetamido)-2-hydroxy-3,4-dihydro-2H-benzo[e][1,2]oxaborinine-8-carboxylic acid] yielded an EC50 of 30 to 500 µM. In addition, the MIC in test [2] was 8 to 16 µg/mL; in the test with S. aureus ATCC 29213, 64 to 128 µg/mL; in test [3] it was less than 64 µg/mL; with E. coli DH5α/pLBII, 8 to 16 µg/mL.

In turn, `CCN1CCN(C(=O)NC(C(=O)N[C@H]2Cc3cccc(C(=O)O)c3OB2O)c2csc(NCCN)n2)C(=O)C1=O` (stereo partly drawn) [Example 63, (3R)-3-(2-(2-((2-aminoethyl)amino)thiazol-4-yl)-2-(4-ethyl-2,3-dioxopiperazine-1-carboxamido)acetamido)-2-hydroxy-3,4-dihydro-2H-benzo[e][1,2]oxaborinine-8-carboxylic acid] gave a concentration for a half-maximal effect (EC50) in test [1] of 30 to 500 µM. In addition, the values for the MIC (in the test on S. aureus ATCC 29213; in test [3]) were 64 to 128 µg/mL and less than 64 µg/mL, respectively.

For the compound `CCN1CCN(C(=O)N[C@H](CCO)C(=O)N[C@H]2Cc3cccc(C(=O)O)c3OB2O)C(=O)C1=O` [Example 59, (R)-3-((R)-2-(4-ethyl-2,3-dioxopiperazine-1-carboxamido)-4-hydroxybutanamido)-2-hydroxy-3,4-dihydro-2H-benzo[e][1,2]oxaborinine-8-carboxylic acid], the concentration for a half-maximal effect (EC50) in test [1] was greater than 500 µM. Moreover, the MIC in test [2] is 32 to 64 µg/mL; in the test with S. aureus ATCC 29213, greater than 128 µg/mL; in test [3] it was less than 64 µg/mL; in the test with E. coli DH5α/pLBII, 32 to 64 µg/mL.

The compound `Nc1nc(C(NC(=O)N2CCN(CCF)C(=O)C2=O)C(=O)N[C@H]2Cc3cccc(C(=O)O)c3OB2O)cs1` (stereo partly drawn) [Example 52, (3R)-3-(2-(2-aminothiazol-4-yl)-2-(4-(2-fluoroethyl)-2,3-dioxopiperazine-1-carboxamido)acetamido)-2-hydroxy-3,4-dihydro-2H-benzo[e][1,2]oxaborinine-8-carboxylic acid] registered a half-maximal effective concentration (EC50) in test [1] of 30 to 500 µM. Also, the MIC in test [2] is 8 to 16 µg/mL; in the test with S. aureus ATCC 29213, 64 to 128 µg/mL; in test [3], less than 64 µg/mL; in the test on E. coli DH5α/pLBII it was 8 to 16 µg/mL.

In turn, `Nc1nc(C(NC(=O)N2CCN(CCF)C(=O)C2=O)C(=O)N[C@H]2Cc3cccc(C(=O)O)c3OB2O)c(Cl)s1` (stereo partly drawn) [Example 57, (3R)-3-(2-(2-amino-5-chlorothiazol-4-yl)-2-(4-(2-fluoroethyl)-2,3-dioxopiperazine-1-carboxamido)acetamido)-2-hydroxy-3,4-dihydro-2H-benzo[e][1,2]oxaborinine-8-carboxylic acid] had an EC50 in test [1] of 30 to 500 µM. In addition, the MIC in test [2] is 8 to 16 µg/mL; in the test on S. aureus ATCC 29213 it was greater than 128 µg/mL; in test [3], less than 64 µg/mL; with E. coli DH5α/pLBII, 8 to 16 µg/mL.

Regarding `CCN1CCN(C(=O)NC(C(=O)N[C@H]2Cc3cccc(C(=O)O)c3OB2O)c2csc(N)n2)CC1=O` (stereo partly drawn) [Example 62, (3R)-3-(2-(2-aminothiazol-4-yl)-2-(4-ethyl-3-oxopiperazine-1-carboxamido)acetamido)-2-hydroxy-3,4-dihydro-2H-benzo[e][1,2]oxaborinine-8-carboxylic acid], the EC50 in test [1] lay within 30 to 500 µM. In addition, the MIC in test [2] was 128 to 256 µg/mL; in the test on S. aureus ATCC 29213, greater than 128 µg/mL; in test [3] it was less than 64 µg/mL; in the test on E. coli DH5α/pLBII, 128 to 256 µg/mL.

Consider `CC(C)CN1CCN(C(=O)NC(C(=O)N[C@H]2Cc3cccc(C(=O)O)c3OB2O)c2csc(N)n2)C(=O)C1=O` (stereo partly drawn) [Example 66, (3R)-3-(2-(2-aminothiazol-4-yl)-2-(4-isobutyl-2,3-dioxopiperazine-1-carboxamido)acetamido)-2-hydroxy-3,4-dihydro-2H-benzo[e][1,2]oxaborinine-8-carboxylic acid], for which the half-maximal effective concentration (EC50) in test [1] is 30 to 500 µM. In addition, the MIC in test [2] was 32 to 64 µg/mL; in the test on S. aureus ATCC 29213, 64 to 128 µg/mL; in test [3], less than 64 µg/mL; with E. coli DH5α/pLBII, 32 to 64 µg/mL.

For `CCN1CCN(C(=O)NCCN2CCN(C(=O)NC(C(=O)N[C@H]3Cc4cccc(C(=O)O)c4OB3O)c3csc(N)n3)C(=O)C2=O)C(=O)C1=O` (stereo partly drawn) [Example 92, (3R)-3-(2-(2-aminothiazol-4-yl)-2-(4-(2-(4-ethyl-2,3-dioxopiperazine-1-carboxamido)ethyl)-2,3-dioxopiperazine-1-carboxamido)acetamido)-2-hydroxy-3,4-dihydro-2H-benzo[e][1,2]oxaborinine-8-carboxylic acid], the EC50 in test [1] fell in the range of 30 to 500 µM. The figures for the MIC (in test [2]; in the test with S. aureus ATCC 29213; in test [3]) were 128 to 256 µg/mL, greater than 128 µg/mL and less than 64 µg/mL, respectively.

`CCCCCCCN1CCN(C(=O)NC(C(=O)N[C@H]2Cc3cccc(C(=O)O)c3OB2O)c2csc(N)n2)C(=O)C1=O` (stereo partly drawn) [Example 94, (3R)-3-(2-(2-aminothiazol-4-yl)-2-(4-heptyl-2,3-dioxopiperazine-1-carboxamido)acetamido)-2-hydroxy-3,4-dihydro-2H-benzo[e][1,2]oxaborinine-8-carboxylic acid] yielded a concentration for a half-maximal effect (EC50) in test [1] of less than 30 µM. Also, the MIC in test [2] is 128 to 256 µg/mL; with S. aureus ATCC 29213, 64 to 128 µg/mL; in test [3], less than 64 µg/mL.

In turn, `CCCCCCN1CCN(C(=O)NC(C(=O)N[C@H]2Cc3cccc(C(=O)O)c3OB2O)c2csc(N)n2)C(=O)C1=O` (stereo partly drawn) [Example 93, (3R)-3-(2-(2-aminothiazol-4-yl)-2-(4-hexyl-2,3-dioxopiperazine-1-carboxamido)acetamido)-2-hydroxy-3,4-dihydro-2H-benzo[e][1,2]oxaborinine-8-carboxylic acid] gave an EC50 in test [1] of less than 30 µM. Further, the MIC was 128 to 256 µg/mL in test [2], 64 to 128 µg/mL with S. aureus ATCC 29213 and less than 64 µg/mL in test [3].

In test [1], `CCN1CCN(C(=O)N[C@@H](C(=O)N[C@H]2Cc3cccc(C(=O)O)c3OB2O)C(C)(C)O)C(=O)C1=O` [Example 86, (R)-3-((R)-2-(4-ethyl-2,3-dioxopiperazine-1-carboxamido)-3-hydroxy-3-methylbutanamido)-2-hydroxy-3,4-dihydro-2H-benzo[e][1,2]oxaborinine-8-carboxylic acid] yielded an EC50 of 30 to 500 µM. Also, the MIC in test [2] was 32 to 64 µg/mL; in the test on S. aureus ATCC 29213 it was greater than 128 µg/mL; in test [3], less than 64 µg/mL.

For `CCN1C(=O)CN(C(=O)NC(C(=O)N[C@H]2Cc3cccc(C(=O)O)c3OB2O)c2csc(N)n2)CC1=O` (stereo partly drawn) [Example 64, (3R)-3-(2-(2-aminothiazol-4-yl)-2-(4-ethyl-3,5-dioxopiperazine-1-carboxamido)acetamido)-2-hydroxy-3,4-dihydro-2H-benzo[e][1,2]oxaborinine-8-carboxylic acid], the MIC in test [2] was 128 to 256 µg/mL; in the test on S. aureus ATCC 29213, greater than 128 µg/mL; in test [3], less than 64 µg/mL; in the test with E. coli DH5α/pLBII, 128 to 256 µg/mL.

As usually defined, the EC50 is the concentration giving half of the maximal effect. The low end stands for an effect from little substance, the high end for a need for much substance.
